Assays:
[1] = test system: cats; assay: Cat palatability, two-pan method (intake ratio); assay type: in vivo; conditions: for effect on palatability / taste (in words): summary statement, no trial details; for IR-A: Ration B incumbent
[2] = test system: Salmonella (five Salmonella enterica serovars); assay: Dog kibble challenge with dried five strain Salmonella cocktail inoculum; assay type: cell-based; conditions: dog kibble challenge
Description: (§1) One ml of each Salmonella culture was separately inoculated into a beaker containing tempered (ambient), sterilized MBM which was then incubated at 37° C. for 48 hours. Inoculated MBM was dispensed (approx. 200 g) into sterile 250 ml centrifuge bottles and centrifuged at 5,000 rpm for 10 minutes. The supernatant was decanted and autoclaved for disposal. The pellets were suspended in 10 ml TSB-20% glycerol. Suspensions (approximately 150-160 g) were transferred to sterilized 250 ml polycarbonate straight side wide mouth jars with lids (Nalgene, Thermo Scientific). Jars containing MBM-Salmonella suspensions were immediately frozen at −70° C. for 1 hour. Frozen MBM-Salmonella suspensions were lyophilized using a FreeZone-1 Liter benchtop freeze dry system (Labconco) (approx. 96 hours, −50° C.). Each lyophilized Salmonella culture was pulverized to a fine powder using a sterile mortar and pestle. Twenty g of each of the five lyophilized Salmonella cultures was combined in a sterile wide mouth glass jar to make the dried Salmonella cocktail inoculum. […] Solidified plates were incubated inverted at 37° C. for 16-18 hours. Visible colonies were counted and colony forming units per gram were calculated (CFU/g). […] Kibble and inoculum were mixed together for five minutes by hand in a plastic zip top bag, and allowed to rest for 1 hour prior to sampling. Coated, un-inoculated kibble was also included in the study and tested for Salmonella (direct plating and FDA BAM), total aerobic bacteria, mold and yeast counts, pH, percent moisture, and water activity. For each analysis time point challenged kibble was sampled in triplicate. Kibbles were stored at ambient temperature.
(§2) Challenged kibble samples bags were mixed thoroughly, then 5.00 g (±0.01) was aseptically weighed into a sterile plastic bag and diluted with 45 ml sterile Phosphate Buffer (Butterfield) diluent (BPB) containing (g/l) KH2PO4 34.0, pH adjusted to 7.2 with 1N sodium hydroxide and homogenized using a Stomacher (Seward Stomacher 80) for 1 minute and serially diluted in BPB for plating. The plates are poured with tempered (45° C.) XLD agar. After solidification, plates were inverted and placed in an incubator (37° C.). Colonies were counted and CFU/g was calculated. The counts for each triplicate sample were averaged and expressed as log CFU/g. Those samples of which were below the detection limit of <10 CFU/g were assigned 0 log CFU/g for the purpose of statistical analysis. Analysis of Variance using the LSD separation of means method was performed to analyze the data using StatGraphics software (StatPoint Technologies, Inc. Warrenton, Va.).
Dry dog palatants were formulated with fumaric acid or SBS to deliver 0.5% acid to the surface of the kibble. The effect of each acid on Salmonella challenged on the surface of dog kibble was examined. Dog kibbles were challenged with dried five strain Salmonella cocktail inoculum.
The effect of each acid on Salmonella challenged on the surface of dog kibble was examined. Dog kibbles were challenged with dried five strain Salmonella cocktail inoculum prep.

[3] = test system: Salmonella (five Salmonella enterica serovars); assay: Cat kibble challenge with dried five strain Salmonella cocktail inoculum; assay type: cell-based; conditions: for Salmonella counts on challenged cat kibble vs control palatant (in words): cat kibble challenge
Description: as §1, §2
All procedures for the Phase 3 kibble challenge were conducted as described for Phase 2.

[4] = Example 4 cat trials, formula 89-87 or 89-145 vs incumbent dry palatant
[5] = Second set, Formula 89-87, 0.25% acid on kibble
[6] = Second set, Formula 89-87, 0.5% total acid on kibble
[7] = First set, Prototype 89-87 at 2.5%, 0.25% acid on kibble
[8] = First set, Prototype 89-87 at 2.5%, 0.5% total acid on kibble
[9] = Table 14, single acid 0.5% on cat kibble, day 0
[10] = Table 14, single acid 0.5% on cat kibble, day 1
[11] = Table 14, single acid 0.5% on cat kibble, day 3
[12] = Table 14, single acid 0.5% on cat kibble, day 7
[13] = Table 14, single acid 0.5% on cat kibble, day 14
[14] = Table 14, single acid 0.5% on cat kibble, day 23

O=C(O)CC(O)C(=O)O (stereo not drawn) [Malic acid, reference compound]
effect on palatability / taste (in words) [1]: adverse effects on palatability

O=C(O)c1cc(O)c(O)c(O)c1 [GA, gallic acid]
palatability (in words) [1, 4]: very good palatability
IR-A [1, 5]: 0.55 (N.S.)
IR-A [1, 6]: 0.70 (p ≤ 0.001)

O=C(O)/C=C\C(=O)O [maleic acid, reference compound]
effect on palatability / taste (in words) [1]: repulsive, astringent taste

O=C(O)C(O)C(O)C(=O)O (stereo not drawn) [tartaric acid, reference compound]
palatability (in words) ([1]; Example 1 cat trials, dry palatant 1.5% on kibble, vs benchmark): significant declines in palatability
IR ([1]; Trial 412, 33% tartaric acid in formula, palatant 1.5% on kibble, vs name brand cat food): 0.24
effect on palatability / taste (in words) [1]: adverse effects on palatability

O=C(O)CCC(=O)O [Suc, succinic acid]
palatability (in words) [1, 4]: palatable alternate to fumaric acid
IR-A [1, 7]: 0.56 (N.S.)
IR-A [1, 8]: 0.54 (N.S.)
Salmonella counts on challenged dog kibble vs control palatant (in words) [2]: effective at significantly reducing Salmonella
Salmonella counts on challenged cat kibble vs control palatant (in words) [3]: effective at significantly reducing Salmonella

O=C(OC[C@H]1O[C@@H](OC(=O)c2cc(O)c(O)c(OC(=O)c3cc(O)c(O)c(O)c3)c2)[C@H](OC(=O)c2cc(O)c(O)c(OC(=O)c3cc(O)c(O)c(O)c3)c2)[C@@H](OC(=O)c2cc(O)c(O)c(OC(=O)c3cc(O)c(O)c(O)c3)c2)[C@@H]1OC(=O)c1cc(O)c(O)c(OC(=O)c2cc(O)c(O)c(O)c2)c1)c1cc(O)c(O)c(OC(=O)c2cc(O)c(O)c(O)c2)c1 [TA, tannic acid]
palatability (in words) [1, 4]: acceptable palatability
IR-A [1, 5]: 0.55 (N.S)
Salmonella [3, 9]: 3.19 ± 0.17^Aa log CFU/g
Salmonella [3, 10]: 2.51 ± 0.26^Ab log CFU/g
Salmonella [3, 11]: 2.05 ± 0.18^Ab log CFU/g
Salmonella [3, 12]: 1.50 ± 0.10^Ac log CFU/g
Salmonella [3, 13]: 1.46 ± 0.16^Ac log CFU/g
Salmonella [3, 14]: 0.00 ± 0.00^Bd log CFU/g
Salmonella counts on challenged cat kibble vs control palatant (in words) [3]: effective at significantly reducing Salmonella

O=C(O)CC(O)(CC(=O)O)C(=O)O [CA, citric acid]
palatability (in words) [1, 4]: adequate palatability
IR-A [1, 6]: 0.46% (N.S.)
Salmonella [3, 9]: 2.05 ± 0.05^Ba log CFU/g
Salmonella [3, 10]: 1.54 ± 0.16^BCDab log CFU/g
Salmonella [3, 11]: 1.46 ± 0.09^ABb log CFU/g
Salmonella [3, 12]: 0.77 ± 0.39^ABc log CFU/g
Salmonella [3, 13]: 0.00 ± 0.00^Bd log CFU/g
Salmonella [3, 14]: 0.00 ± 0.00^Bd log CFU/g
Salmonella counts on challenged cat kibble vs control palatant (in words) [3]: effective at significantly reducing Salmonella

C/C=C/C=C/C(=O)O [Sorbic Acid, sorbic acid]
IR-A ([1]; Confirmation trials, Prototype 89-87, 0.5% total acid on kibble): 0.59 p ≤ 0.001)
palatability (in words) ([1]; Example 4 cat trials, formula 89-87 or 89-145 vs incumbent dry palatant, listed as Sorbic acid): scored significantly higher than the incumbent flavor
palatability (in words) ([1]; Example 4 cat trials, formula 89-87 or 89-145 vs incumbent dry palatant, listed as sorbic acid): remained high
IR-A [1, 7]: 0.74 (p ≤ 0.001)
IR-A [1, 8]: 0.70 (p ≤ 0.001)
Salmonella counts on challenged dog kibble vs control palatant (in words) [2]: effective at significantly reducing Salmonella
Salmonella ([3]; Table 12, 0.50% total acid on cat kibble, day 0): 3.50 ± 0.06^Ba log CFU/g
Salmonella ([3]; Table 12, 0.50% total acid on cat kibble, day 1): 2.10 ± 0.08^Bb log CFU/g
Salmonella ([3]; Table 12, 0.50% total acid on cat kibble, day 5): 0.77 ± 0.39^Bc log CFU/g
Salmonella ([3]; Table 12, 0.50% total acid on cat kibble, day 7): 0.49 ± 0.49^Bc log CFU/g
Salmonella ([3]; Table 12, 0.50% total acid on cat kibble, day 14): 0.67 ± 0.33^Bc log CFU/g
Salmonella ([3]; Table 12, 0.50% total acid on cat kibble, day 21): 0.00 ± 0.00^Bc log CFU/g
Salmonella counts on challenged cat kibble vs control palatant (in words) ([3]; listed as sorbic): effective at significantly reducing Salmonella
Salmonella counts on challenged cat kibble vs control palatant (in words) ([3]; listed as sorbic acid): significantly lower

Reference: patent publication US10070660B2, “Pet food palatability with antimicrobial properties based on organic acids” (KEMIN INDUSTRIES, INC., priority 2012, dated 2018)
